Patent US20190145962A1, “PEPTIDE FOR […] OF AMYLOSPHEROIDS (ASPD), AND […] SCREENING METHOD” (TAO HEALTH LIFE PHARMA CO., LTD., priority 2016, published 2019)

What was measured:
[1] = test system: binding of ASPD to neurons (synthetic ASPD, primary cultured rat hippocampal neurons); assay: Evaluation of ASPD-inhibitory peptides: inhibition of binding of ASPD to cultured neurons (immunofluorescence imaging, titer); type: cell-based; settings: for ASPD-binding inhibitory ability (titer) compared with known ASPD neutralizing peptide 01 (HFNW): qualitative comparison with peptide 01, FIG. 3 and FIG. 4; for effect of inhibiting binding of ASPD to neurons: qualitative, evaluation of section 1
Description: Evaluation of peptides that inhibits binding of ASPD to neurons was performed by the following method.
Step 1: Adding a liquid mixture containing peptide and ASPD, which have been mixed together and then incubated, to cultured mature neurons.
Step 2: Degenerating (immobilizing) the neurons.
Step 3: Immunostaining the neurons and the ASPD, respectively, to perform imaging.
Step 4: Analyzing the image to quantify the ASPD bound to the neurons.
Step 5: Evaluating the peptides using the amount of the ASPD bound and/or an analytical value obtained therefrom.
Steps 1 to 3 were performed as follows:
A liquid mixture of peptide and synthetic ASPD was incubated at 4° C. for 15 minutes to pretreat the ASPD and this liquid mixture was added to primary cultured rat hippocampal neurons cultured in a 96-well plate.
After incubation at 37° C. for 15 minutes in a CO2 incubator, the wells were washed with PBS. Then, 2% paraformaldehyde (50 μl/well) was added thereto for immobilization performed for 20 minutes at 37° C. and further 4% paraformaldehyde (50 μl/well) was added thereto for immobilization performed for 20 minutes at 37° C. After washing and blocking, a primary antibody solution containing anti-ASPD antibody (mASD3) and anti-MAP2 antibody (trade name: sc-20172, manufactured by SANTACRUZ) was added, which then was left overnight. After washing, a secondary antibody solution containing Alexa Fluoro (trademark) 568 anti-mouse antibody (trade name: A11031, manufactured by life technologies), Alexa Fluoro (trademark) 488 anti-rabbit antibody (trade name: A11034, manufactured by life technologies), and DAPI (trade name: D523, manufactured by Dojindo) was added and then fluorescence microscopic observation was performed.
Subsequently, steps 4 to 5 were performed as follows: From the microscopic observation data, a calibration curve as shown in FIG. 2 was drawn, an approximate curve was created within a range where linearity was maintained, and then ED50 was calculated. Using, as an indicator, “titer” that is defined by the ratio of ED50 of the ASPD treated with peptide to ED50 of the ASPD alone, the ASPD-binding inhibitory ability of peptide was evaluated.
Titer=ED50[ASPD+Peptide]/ED50[ASPD]

Synthetic ASPD = target: T1, Synthetic ASPD (Homo sapiens, UniProt P05067); assay: Surface plasmon resonance (SPR), synthetic ASPD solid-phased on a chip, peptide as analyte; type: binding; settings: class symbols, key not given; the dissociation constant (KD) was determined but is not given
T1 construct: can be produced by slowly rotating a liquid containing Aß
T1 sequence (P05067 672-713 limits assumed): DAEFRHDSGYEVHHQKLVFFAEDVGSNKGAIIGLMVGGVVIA
Description: Synthetic ASPD were solid-phased on a chip and each peptide shown in Table 3 below was allowed to flow as an analyte. Then the dissociation constant (KD) was determined by surface plasmon resonance (SPR).

Substance	ASPD-binding inhibitory ability (titer) compared with known ASPD neutralizing peptide 01 (HFNW) [1]	effect of inhibiting binding of ASPD to neurons [1]	Results of SPR (Ability to Bind to ASPD) (Synthetic ASPD)
HANW [Peptide 10]	comparable to that of known ASPD neutralizing peptide 01 (HFNW)	–	–
HFDW [Peptide 18]	–	showed the effect of inhibiting binding of ASPD to neurons	–
HFKW [Peptide 22]	superior	–	–
HFNW [Peptide 01, known ASPD neutralizing peptide, reference compound]	–	showed the effect of inhibiting binding of ASPD to neurons	–
HFRW [Peptide 16]	superior	–	–
HFWW [Peptide 15]	–	showed the effect of inhibiting binding of ASPD to neurons	–
HHNW [Peptide 05]	comparable to that of known ASPD neutralizing peptide 01 (HFNW)	showed the effect of inhibiting binding of ASPD to neurons	–
HNNW [reference compound]	–	could not inhibit the binding of ASPD to neurons	No binding was found.
HPNW [reference compound]	–	could not inhibit the binding of ASPD to neurons	No binding was found.
HTNW [Peptide 09]	comparable to that of known ASPD neutralizing peptide 01 (HFNW)	showed the effect of inhibiting binding of ASPD to neurons	–
HVNW [Peptide 11]	comparable to that of known ASPD neutralizing peptide 01 (HFNW)	–	–
HYNW [Peptide 08]	–	showed the effect of inhibiting binding of ASPD to neurons	–
